Patent US10159655B2, “Agent for inhibiting odor of pyrazine derivatives” (Kao Corporation, priority 2012, dated 2018)

Columns and labels:
olfactory receptor OR5K1 = target: T1, olfactory receptor OR5K1 (Homo sapiens, UniProt Q8NHB7); experiment: Antagonistic activity against OR5K1: inhibition of the receptor response to 2,6-dimethylpyrazine (luciferase assay, HEK293 cells); type: cell-based; settings: 2,6-dimethylpyrazine 1 mM + test substance 300 μM, cytotoxic flavoring agents re-evaluated at 333 μM 2,6-dimethylpyrazine + 100 μM test substance, read-out: Inhibition rate (receptor response-inhibiting rate)
T1 construct: expressed in transfected cells; host or cells: HEK293
T1 sequence (Q8NHB7 1-308): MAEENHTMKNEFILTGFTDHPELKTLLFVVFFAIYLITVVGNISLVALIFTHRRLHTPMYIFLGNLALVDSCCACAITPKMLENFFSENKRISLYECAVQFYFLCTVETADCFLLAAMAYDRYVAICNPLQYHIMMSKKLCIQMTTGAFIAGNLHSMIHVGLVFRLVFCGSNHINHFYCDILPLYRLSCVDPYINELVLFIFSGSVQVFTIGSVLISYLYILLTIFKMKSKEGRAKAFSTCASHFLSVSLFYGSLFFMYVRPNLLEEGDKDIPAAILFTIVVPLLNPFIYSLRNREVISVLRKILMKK
Experimental: The receptor response-inhibiting rate of a test substance was calculated as follows. The receptor activity (X-Y) by stimulation with 2,6-dimethylpyrazine alone was determined by subtracting the luminescence value (Y) in cells to which the receptor was introduced but were not stimulated with 2,6-dimethylpyrazine from the luminescence value (X) derived from firefly luciferase induced by stimulation with 2,6-dimethylpyrazine alone. Similarly, the receptor activity (Z-Y) in the presence of a test substance was determined by subtracting the luminescence value (Y) in cells not stimulated with 2,6-dimethylpyrazine from the luminescence value (Z) stimulated with a mixture of 2,6-dimethylpyrazine and the test substance. The reduction rate of the receptor activity (Z-Y) in the presence of a test substance to the receptor activity (X-Y) by stimulation with 2,6-dimethylpyrazine alone was calculated by the following computation expression: Inhibition rate (%)={1−(Z−Y)/(X−Y)}×100, to determine the receptor response-inhibiting rate of the test substance. In the measurement, multiple independent experiments were performed in duplicate, and the average of each experiment was used.

[1] = Sensory test of ability to reduce the odor of 2,6-dimethylpyrazine on cloth; type: in vivo; settings: 0.5 μL flavoring agent on 0.5 g cloth containing 1% 2,6-dimethylpyrazine; four panelists; FIG. 3
Experimental: The abilities to reduce an odor of a pyrazine derivative by the antagonist substances identified in Example 3 were confirmed by a sensory test.
A flavoring agent (0.5 μL) was added to cloth (0.5 g) containing 2,6-dimethylpyrazine (1%), and the odor thereof was evaluated by comparing the strength of odor of 2,6-dimethylpyrazine of the cloth not applied with flavor by the flavoring agent. The sensory evaluation test was performed by four panelists. In the evaluation, a case where a strong odor of 2,6-dimethylpyrazine was smelled was rated as 1, and a case where the odor of 2,6-dimethylpyrazine was not smelled at all was rated as 5.

SMILES	inhibition at 300 µM (olfactory receptor OR5K1) [%]	odor of 2,6-dimethylpyrazine inhibited (sensory evaluation, rating 1 strong odor to 5 not smelled) [1]
O=C1CCCCCCCCCCCC(=O)OCCO1 [1,4-dioxacycloheptadecane-5,17-dione]	≥ 40	–
CC(=O)C1=C(C)C2CC3(C1)C(C)CCC3C2(C)C (stereo not shown) [1-(2,3,4,7,8,8a-hexahydro-3,6,8,8-tetramethyl-1H-3a,7-methanoazulen-5-yl)-ethanone]	≥ 50	–
CC=CC(=O)C1=C(C)C=CCC1(C)C [1-(2,6,6-trimethyl-1,3-cyclohexadien-1-yl)-2-buten-1-one]	≥ 40	inhibited
CCC(O)COC1CCCCC1C(C)(C)C (stereo not shown) [1-(2-tert-butylcyclohexyloxy)-2-butanol]	≥ 75	inhibited
C=CCCC(=O)C1=CCCC(C)(C)C1 [1-(5,5-dimethyl-1-cyclohexen-1-yl)-4-penten-1-one]	≥ 40	inhibited
CC(=O)c1cc2c(cc1C)C(C)(C)C(C)CC2(C)C (stereo not shown) [1-(5,6,7,8-tetrahydro-3,5,5,6,8,8-hexamethyl-2-naphthalenyl)-ethanone]	≥ 75	–
C=CCc1ccc(O)c(OC)c1 [1-allyl-3-methoxy-4-hydroxybenzene]	≥ 40	–
CC1=CC(C)C(C=O)CC1 (stereo not shown) [2,4-dimethyl-3-cyclohexene-1-carboxyaldehyde]	–	inhibited
CC(C=O)C1CCCCC1 (stereo not shown) [2-cyclohexylpropanal]	≥ 50	–
CCC(=CCC1CC=C(C)C1(C)C)CO (stereo not shown) [2-ethyl-4-(2,2,3-trimethyl-3-cyclopenten-1-yl)-2-buten-1-ol]	≥ 75	–
CC=Cc1ccc(OCc2ccccc2)c(OC)c1 [2-methoxy-1-(phenylmethoxy)-4-(1-propenyl)-benzene]	≥ 50	–
CC(=CCC1CC=C(C)C1(C)C)CO (stereo not shown) [2-methyl-4-(2,2,3-trimethyl-3-cyclopenten-1-yl)-2-buten-1-ol]	≥ 50	inhibited
CCCCCC1=C(C)CCC1=O [2-pentyl-3-methyl-2-cyclopenten-1-one]	≥ 40	–
CC(C=O)c1ccccc1 (stereo not shown) [2-phenylpropionaldehyde]	≥ 50	–
CC(C)CCCC(C)CCO (stereo not shown) [3,7-dimethyl-1-octanol]	≥ 50	–
CC(C)=CCCC(C)=CC=O [3,7-dimethyl-2,6-octadienal]	≥ 75	–
CC(C)=CCCC(C)CC=O (stereo not shown) [3,7-dimethyl-6-octenal]	≥ 50	–
C=C(OCC)C1C(C)(C)CC(=O)CC1(C)C [4-(1-ethoxyvinyl)-3,3,5,5-tetramethylcyclohexanone]	≥ 50	–
CC(=O)C=CC1=C(C)CCCC1(C)C [4-(2,6,6-trimethyl-1-cyclohexen-1-yl)-3-buten-2-one]	–	inhibited
CCC=C(C)C(O)CCCCC (stereo not shown) [4-methyl-3-decen-5-ol]	≥ 75	inhibited
CC(=O)c1c(C)c([N+](=O)[O-])c(C(C)(C)C)c([N+](=O)[O-])c1C [4-tert-butyl-2,6-dimethyl-3,5-dinitroacetophenone]	≥ 40	–

SMILES	inhibition at 300 µM (olfactory receptor OR5K1) [%]	odor of 2,6-dimethylpyrazine inhibited (sensory evaluation, rating 1 strong odor to 5 not smelled) [1]
Cc1ccc(C(C)C)c(O)c1 [5-methyl-2-(1-methylethyl)-phenol]	≥ 75	–
CC(C)=CCCC(C)CCOCC=O (stereo not shown) [6,10-dimethyl-3-oxa-9-undecenal]	≥ 40	–
CC(=O)c1cc(C(C)(C)C)cc2c1C=CC2(C)C [6-tert-butyl-1,1-dimethylinden-4-yl methyl ketone]	≥ 40	–
CC(=O)C1(C)CC2=C(CCCC2(C)C)CC1C (stereo not shown) [7-acetyl-1,2,3,4,5,6,7,8-octahydro-1,1,6,7-tetramethyl-naphthalene]	≥ 75	–
CC1C/C=C/CCCCCCCCCC(=O)C1 (stereo not shown) [(5E)-3-methylcyclopenta-5-decen-1-one]	–	inhibited
CC(C)=CCC/C(C)=C/CO [(E)-3,7-dimethyl-2,6-octadien-1-ol]	≥ 40	inhibited
CC(=O)O[C@]1(C)CC[C@@]23C[C@@H]1C(C)(C)[C@@H]2CC[C@H]3C [cedryl acetate]	≥ 50	–
O=CC=Cc1ccccc1 [cinnamaldehyde]	≥ 50	–
CC(C)[C@H]1CC[C@@H](CO)CC1 [cis-4-isopropylcyclohexylmethanol]	≥ 40	–
CC1(C)CCCC2(C)C1CCC1(C)OCCC12 (stereo not shown) [dodecahydro-3a,6,6,9a-tetramethylnaphtho[2,1-b]furan]	≥ 50	–
CCOC(=O)[C@]12CCC[C@H]1[C@@H]1CC[C@H]2C1 [ethyl-(3aα,4α,7α,3aα)-octahydro-4,7-methano-3aH-indene-3a-carboxylate]	–	inhibited
CCOCOC1CCCCCCCCCCC1 [formaldehyde cyclododecyl ethyl acetal]	≥ 50	–
CCCCCCOC(=O)c1ccccc1O [hexyl salicylate]	≥ 40	–
O=C(OCCc1ccccc1)c1ccccc1O [phenylethyl salicylate]	≥ 75	–
CCCCCCC(C=O)=Cc1ccccc1 [α-hexylcinnamic aldehyde]	–	inhibited
CC(=O)/C(C)=C/C1C(C)=CCCC1(C)C (stereo not drawn) [α-isomethyl ionone]	–	inhibited
CC(C=O)Cc1ccc2c(c1)OCO2 (stereo not drawn) [α-methyl-3,4-methylenedioxyhydrocinnamic aldehyde]	–	inhibited
CC(C=O)Cc1ccc(C(C)C)cc1 (stereo not drawn) [α-methyl-4-(1-methylethyl)-benzenepropanal]	≥ 75	–
CC(C=O)Cc1ccc(C(C)(C)C)cc1 (stereo not drawn) [α-methyl-β-(p-tert-butylphenyl)-propionaldehyde]	≥ 50	inhibited
CC(=O)c1ccc2ccccc2c1 [β-methyl naphthyl ketone]	–	inhibited
CCCCCCCC1CCC(=O)O1 (stereo not shown) [γ-undecalactone]	–	inhibited
